Results as given in patent publication US20030100479A1, “Gene polymorphisms and response to treatment” (priority 2001, published 2003).
“Also recorded” adds a separate entry of the source.

Assays:
[1] = Clinical trial of GW320659: change in supine heart rate (time-adjusted AUC), by genotype; type: in vivo, human; parameters: Change in Heart Rate, Mean / Heart Rate (mean time adusted change): unit not given here
Source text: (§1) Using genotyping methods as are well known in the art, genetic data were obtained from approximately 200 of more than 500 human subjects enrolled in a dose-ranging efficacy and safety study of GW320659 for weight loss (main study group; a randomized, double-blind, placebo controlled, dose-ranging clinical trial); GW320659 was used in conjunction with a mildly hypocaloric diet and brief weight management guidance. Subjects were between the ages of 18-65 years, with a Body Mass Index (BMI) of 30-40, and were not on any psychotropic medications or other anti-obesity medications. Subjects were randomized into one of five treatment groups: placebo or GW320659 at 2.5 mg/day, 5 mg/day, 10 mg/day, or 15 mg/day (oral administration). In the main study group, for the GW320659 15 mg/day dosage, average weight loss was approximately 3.7 kg (108 subjects; data not shown).
(§2) Subjects were assessed for various parameters, including absolute change in body weight from week 0 to week 24 of the study; supine heart rate, diastolic blood pressure and systolic blood pressure at multiple predetermined time-points across the study; and change in Food Craving Inventory (Total) score from week 0 to week 24.
(§3) Analyses of changes in cardiovascular endpoints (HR, SBP, DBP, all measured in supine subjects) were conducted individually for each of the polymorphic sites, and analyzed as follows. Vital sign assessments at all post-baseline visits were analyzed utilizing a repeated measures (mixed) ANOVA model. Genotype by treatment interactions were assessed. The following model was used.
If the treatment by time interaction was non-significant, the corresponding term was planned to be removed from the model, prior to assessing treatment by genotype interaction. Subsequently, this term was removed for all vital signs analyses. In addition, vital signs data was analyzed utilizing a time-weighted area under the curve (adjusted for baseline) analysis. Model #2 (used for the efficacy analyses) was employed for these analyses.
The multilocus genotypes from each individual were used to enumerate all possible haplotypes. These haplotypes were assigned starting frequencies. The haplotype frequencies were updated with frequencies calculated from all the possible haplotypes from each individual in the sample. This continued until the frequencies were constant from iteration to iteration.
Regression-based models were used to relate inferred haplotype probabilities for each individual with the continuous response.
Supine heart rate (HR), supine systolic blood pressure (SBP) and supine diastolic blood pressure (DBP) were assessed at various fixed intervals across the duration of the study. Summaries and analyses were conducted on the “area under the curve” (AUC) values (adjusted for time on study and baseline). All reported p-values in this section refer to AUC analyses, using Model No.2 as described above.
As in Food Craving Inventory (Example 6, above), manual splits were created by treatment dose (placebo, 2.5+5 mg, and 10+15 mg). The p-value threshold was then set at 0.10 (the minimum level necessary to get further automatic splits). The software then determined the remaining splits for the 10+15 mg group. The splits found in the 10+15 mg group were then manually duplicated for the lower dose groups (for comparison purposes).

[2] = Clinical trial of GW320659: change in supine systolic blood pressure (time-adjusted AUC), by genotype; type: in vivo, human
Source text: as §1, with “Subjects were randomized into one of five treatment groups: placebo or GW320659 at 2.5 mg/day, 5 mg/day, 10 mg/day, or 15 mg/day (oral administration). In the main study group, for the GW320659 15 mg/day dosage, average weight loss was approximately 3.7 kg (108 subjects; data not shown).” left out
as §2
as §3, with “The following model was used.” left out

[3] = test system: dopamine reuptake; settings: Kelley et al., J. Med. Chem. 39:347 (1996); cited from earlier work
[4] = NET1 T342C (2,2) and without DRD2 C12121T (2,2), 10 mg/day or 15 mg/day
[5] = subgroup 2/2 NET1T342C and/or 2/2 NET1G155A and/or 2/2 NR1G6435A, 10 mg/day+15 mg/day, 26 subjects

C[C@@H]1CO[C@@](O)(c2cc(F)cc(F)c2)[C@H](C)N1.Cl [GW320659, (2S,3S,5R)-2-(3,5-difluorophenyl)-3,5-dimethyl-2-morpholinol]
Increase in heart rate compared to subjects with alternate genotypes ([1]; DRD2 C12121T (2′,2) and MAOBG644A (1,1) genotypes, 10 mg/day or 15 mg/day): larger increase in heart rate
Changes in heart rate compared to subjects with alternate genotypes [1, 4]: decreased changes in heart rate and blood pressure; also recorded: comparatively small changes in HR, SBP and DBP
Change in Heart Rate, Mean ([1]; haplotype 1,1 5HTTC867T 5HTTT3287C, All Ethnicities, 10 and 15 mg combined (Table 6)): 3.5075
Change in Heart Rate, Mean ([1]; haplotype 1,1 5HTTC867T 5HTTT3287C, Caucasians, 10 and 15 mg combined (Table 7)): 3.811
Change in Heart Rate, Mean ([1]; haplotype 1,1 5HTTDel-Ins 5HTTC867T, All Ethnicities, 10 and 15 mg combined (Table 6)): 4.2
Change in Heart Rate, Mean ([1]; haplotype 1,1 5HTTDel-Ins 5HTTC867T, Caucasians, 10 and 15 mg combined (Table 7)): 4.077
Change in Heart Rate, Mean ([1]; haplotype 1,1,1 5HTTDel-Ins 5HTTC867T 5HTT3287C, All Ethnicities, 10 and 15 mg combined (Table 6)): 5.48
Change in Heart Rate, Mean ([1]; haplotype 1,1,1 5HTTDel-Ins 5HTTC867T 5HTT3287C, Caucasians, 10 and 15 mg combined (Table 7)): 5.69
Change in Heart Rate, Mean ([1]; haplotype 1,1,2 5HTTDel-Ins 5HTTC867T 5HTT3287C, All Ethnicities, 10 and 15 mg combined (Table 6)): −0.6849
Change in Heart Rate, Mean ([1]; haplotype 1,1,2 5HTTDel-Ins 5HTTC867T 5HTT3287C, Caucasians, 10 and 15 mg combined (Table 7)): −0.8345
Change in Heart Rate, Mean ([1]; haplotype 1,2 5HTTC867T 5HTTT3287C, All Ethnicities, 10 and 15 mg combined (Table 6)): −0.6851
Change in Heart Rate, Mean ([1]; haplotype 1,2 5HTTC867T 5HTTT3287C, Caucasians, 10 and 15 mg combined (Table 7)): −0.8347
Change in Heart Rate, Mean ([1]; haplotype 1,2 5HTTDel-Ins 5HTTC867T, All Ethnicities, 10 and 15 mg combined (Table 6)): 6.424
Change in Heart Rate, Mean ([1]; haplotype 1,2 5HTTDel-Ins 5HTTC867T, Caucasians, 10 and 15 mg combined (Table 7)): 6.807
Change in Heart Rate, Mean ([1]; haplotype 1,2,1 5HTTDel-Ins 5HTTC867T 5HTT3287C, All Ethnicities, 10 and 15 mg combined (Table 6)): 6.404
Change in Heart Rate, Mean ([1]; haplotype 1,2,1 5HTTDel-Ins 5HTTC867T 5HTT3287C, Caucasians, 10 and 15 mg combined (Table 7)): 6.808
Change in Heart Rate, Mean ([1]; haplotype 2,1 5HTTC867T 5HTTT3287C, All Ethnicities, 10 and 15 mg combined (Table 6)): 5.565
Change in Heart Rate, Mean ([1]; haplotype 2,1 5HTTC867T 5HTTT3287C, Caucasians, 10 and 15 mg combined (Table 7)): 5.827
Change in Heart Rate, Mean ([1]; haplotype 2,1 5HTTDel-Ins 5HTTC867T, All Ethnicities, 10 and 15 mg combined (Table 6)): 2.183
Change in Heart Rate, Mean ([1]; haplotype 2,1 5HTTDel-Ins 5HTTC867T, Caucasians, 10 and 15 mg combined (Table 7)): 3.034
Change in Heart Rate, Mean ([1]; haplotype 2,1,1 5HTTDel-Ins 5HTTC867T 5HTT3287C, All Ethnicities, 10 and 15 mg combined (Table 6)): 2.256
Change in Heart Rate, Mean ([1]; haplotype 2,1,1 5HTTDel-Ins 5HTTC867T 5HTT3287C, Caucasians, 10 and 15 mg combined (Table 7)): 3.11
Change in Heart Rate, Mean ([1]; haplotype 2,2 5HTTDel-Ins 5HTTC867T, All Ethnicities, 10 and 15 mg combined (Table 6)): 4.879
Change in Heart Rate, Mean ([1]; haplotype 2,2 5HTTDel-Ins 5HTTC867T, Caucasians, 10 and 15 mg combined (Table 7)): 5.085
Change in Heart Rate, Mean ([1]; haplotype 2,2,1 5HTTDel-Ins 5HTTC867T 5HTT3287C, All Ethnicities, 10 and 15 mg combined (Table 6)): 4.782
Change in Heart Rate, Mean ([1]; haplotype 2,2,1 5HTTDel-Ins 5HTTC867T 5HTT3287C, Caucasians, 10 and 15 mg combined (Table 7)): 4.92
Mean rise in HR ([1]; subgroup 2,2 for NET1T342C and/or NET1G155A and/or NR1G6435A, 10 mg and 15 mg combined): 4.7 bpm
Overall mean time-adjusted change in Heart Rate, mean rise ([1]; subgroup 2,2 for NET1T342C and/or NET1G155A and/or NR1G6435A, 10 mg/day+15 mg/day, not significantly different from placebo): 4.7 beats per minute
Heart Rate (mean time adusted change) [1, 5]: 4.666
Mean change in HR ([1]; subgroup DRD2 C12121T (1,1) and MAOB G644A (1,1), 10 mg and 15 mg dosing): 13 bpm
Overall mean time-adjusted change in Heart Rate, mean increase ([1]; subgroup DRD2C12121T=2,2 and MAOBG644A=1,1, 10 mg/day+15 mg/day): 13 beats per minute
Changes in systolic blood pressure compared to subjects with alternate genotypes [2, 4]: decreased changes in heart rate and blood pressure; also recorded: comparatively small changes in HR, SBP and DBP
Systolic Blood Pressure (mean time adjusted change) [2, 5]: 0.9733
Inhibition of dopamine reuptake [3]: weaker reuptake inhibition effects on dopamine reuptake
